# From patent EP4722195A1, “PH-SENSITIVE CATIONIC LIPID AND LIPID NANOPARTICLES” (National University Corporation Hokkaido University, priority 2023, dated 2024)
# How the values were obtained:
# [1] = Average particle size and polydispersity index of lipid nanoparticles (dynamic light scattering); type: physicochemical
# Procedure: (§1) The average particle size (number average value), ζ-average particle size, and polydispersity index (PdI) of the lipid nanoparticles in PBS(-) (pH 7.4), and the zeta potential in 10 mM HEPES buffer (pH 7.4) were measured using an analyzer "Zetasizer Nano ZS ZEN3600" (manufactured by Malvern) utilizing dynamic light scattering.
# [2] = Zeta potential of lipid nanoparticles; type: physicochemical
# Procedure: as §1
# [3] = Apparent pKa of lipid nanoparticles (TNS)
# Procedure: The apparent pKa of the lipid nanoparticles was measured using p-toluenesulfonic acid (TNS). First, TNS (final concentration: 0.75 µM) and lipid nanoparticles (final concentration: 30 µM) were mixed in a buffer (200 mL) adjusted to each pH (pH 3.5 to 9.5). As the buffer, 20 mM citrate buffer, 20 mM sodium phosphate buffer, or 20 mM Tris-HCl buffer containing 130 mM NaCl was used. The fluorescence intensity of the prepared mixture was measured using a fluorescence spectrophotometer (Varioskan Lux, manufactured by Thermo Fisher Scientific) with the settings of λex=321 nm and λem=447 nm. Among the measured values, the highest value and the lowest value were set as 100% and 0% ionization degrees, respectively, and the pH showing a 50% ionization degree was calculated as the apparent pKa. The content ratio (%) of cationically charged pH-sensitive cationic lipid was calculated using the Henderson-Hasselbalch equation.
# [4] = Encapsulation rate of lipid nanoparticles (Ribogreen); type: physicochemical
# Method in brief: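 Ribogreen fluorescence (Ex/Em 500/525 nm) measured after mixing sample 1:1 with 10 mM HEPES pH 7.4 buffer with or without Triton X-100. mRNA quantified from a calibration curve of known mRNA dilutions; encapsulation rate (%) calculated from Triton(+) versus Triton(−) signals.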
# liver = test: EGFP expression in liver tissue sections of mice administered EGFP mRNA-loaded lipid nanoparticles (confocal microscopy); type: in vivo, Balb/c mice
# Method in brief: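 Balb/c mice received EGFP mRNA-loaded lipid nanoparticles at 0.2 mg mRNA/kg, with DyLight-649 tomato lectin given i.v. at 40 µg/mouse at 23 h 50 min to mark vascular endothelium. Livers taken at 24 h were sectioned, Hoechst 33342-stained (1 µg/mL), and imaged by confocal laser scanning microscopy.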
# [5] = Table 1, Fluc mRNA-loaded lipid nanoparticles, TxT/DSPC/chol/PEG-DMG=50/15/35/1.5 (mol%)
# [6] = Table 3, Fluc mRNA-loaded lipid nanoparticles, TxT/DSPC/chol/PEG-DMG=50/3/47/1.5 (mol%)
# [7] = Table 4, Fluc mRNA-loaded lipid nanoparticles, TxT-5-5A14/DSPC/chol/PEG-DMG=50/3/47/1.5, SM-102, ALC-0315 or MC3/DSPC/chol/PEG-DMG=50/10/40/1.5 (mol%)
# [8] = Table 5, EGFP mRNA-loaded lipid nanoparticles, TxT/DSPC/chol/PEG-DMG=50/3/47/1.5 (mol%), total flow rate 3.0 mL/min
# [9] = Table 6 (Example 28), Fluc mRNA-loaded lipid nanoparticles, TxT/DSPC/chol/PEG-DMG=50/3/47/1.5 (mol%)
# [10] = Table 7, hEPO mRNA-loaded lipid nanoparticles, TxT/DSPC/chol/PEG-DMG=50/3/47/1.5, SM-102/DSPC/chol/PEG-DMG=50/10/40/1.5 (mol%)
# [11] = Table 8 (Example 32), lipid nanoparticles for TTR-targeted genome editing, Cas9-mRNA and TTR-gRNA 1:2 (N/P = 6.0), TxT/DSPC/chol/PEG-DMG = 50/3/47/1.5 (mol%)
# [12] = Table 9 (Example 33), lipid nanoparticles for TTR-targeted genome editing, Cas9-mRNA and TTR-gRNA 1:2 (N/P = 6.0), TxT-5-5A14/DSPC/chol/PEG-DMG = 50/3/47/1.5 (mol%)
# [13] = Table 10 (Example 34), lipid nanoparticles for PCSK9-targeted genome editing, Cas9-mRNA and PCSK9-gRNA 1:2 (N/P = 6.0), TxT-5-5A14/DSPC/chol/PEG-DMG = 50/3/47/1.5 (mol%)
# [14] = Example 27, Fig. 6, EGFP mRNA-loaded lipid nanoparticles TxT/DSPC/chol/PEG-DMG=50/3/47/1.5 (mol%), 24 hours post-administration
compound,measurement,setting,value
"CCCCCCCN(CCCCCCC)C(=O)CCCC(=O)OCC(COC(=O)CCCC(=O)N(CCCCCCC)CCCCCCC)(COC(=O)CCCC(=O)N(CCCCCCC)CCCCCCC)NC(=O)CCN1CCCCC1 [TxT-5-5A14, 2-(((5-(diheptylamino)-5-oxopentanoyl)oxy)methyl)-2-(3-(piperidin-1-yl)propanamido)propane-1,3-diyl bis(5-(diheptylamino)-5-oxopentanoate)]",Pdl,[1]; [5],0.11
same,number average particle size,[1]; [5],72.4 nm
same,ζ-average particle size,[1]; [5],106.2 nm
same,Pdl,[1]; [6],0.08
same,number average particle size,[1]; [6],78.9 nm
same,ζ-average particle size,[1]; [6],101.0 nm
same,Pdl,[1]; [7],0.08
same,number average particle size,[1]; [7],82.4 nm
same,ζ-average particle size,[1]; [7],113.8 nm
same,Pdl,[1]; [8],0.06
same,number average particle size,[1]; [8],80.9 nm
same,ζ-average particle size,[1]; [8],106.0 nm
same,Pdl,[1]; [9],0.09
same,number average particle size,[1]; [9],79.6 nm
same,ζ-average particle size,[1]; [9],107.7 nm
same,Pdl,[1]; [10],0.04
same,number average particle size,[1]; [10],76.6 nm
same,ζ-average particle size,[1]; [10],103.4 nm
same,Pdl,[1]; [11],0.05
same,number average particle size,[1]; [11],66.4 nm
same,ζ-average particle size,[1]; [11],82.2 nm
same,Pdl,[1]; [12],0.10
same,number average particle size,[1]; [12],67.7 nm
same,ζ-average particle size,[1]; [12],91.8 nm
same,Pdl,[1]; [13],0.10
same,number average particle size,[1]; [13],73.6 nm
same,ζ-average particle size,[1]; [13],99.4 nm
same,ζ-potential,[2]; [5],-3.4 mV
same,ζ-potential,[2]; [6],-7.5 mV
same,ζ-potential,[2]; [7],-8.9 mV
same,ζ-potential,[2]; [8],-13.0 mV
same,ζ-potential,[2]; [9],-6.4 mV
same,ζ-potential,[2]; [10],-1.4 mV
same,ζ-potential,[2]; [11],-5.5 mV
same,ζ-potential,[2]; [12],-4.0 mV
same,ζ-potential,[2]; [13],-1.6 mV
same,pKa,"[3]; Table 1, apparent pKa of Fluc mRNA-loaded lipid nanoparticles, TxT/DSPC/chol/PEG-DMG=50/15/35/1.5 (mol%)",4.99
same,pKa,[3]; [6],6.46
same,pKa,[3]; [7],6.53
same,mRNA concentration,[4]; [5],0.025 µg/µL
same,mRNA encapsulation rate,[4]; [5],98.8%
same,mRNA concentration,[4]; [6],0.022 µg/µL
same,mRNA encapsulation rate,[4]; [6],98.6%
same,mRNA concentration,[4]; [7],0.022 µg/µL
same,mRNA encapsulation rate,[4]; [7],99.4%
same,mRNA concentration,[4]; [8],0.023 µg/µL
same,mRNA encapsulation rate,[4]; [8],99.0%
same,mRNA concentration,[4]; [9],0.021 µg/µL
same,mRNA encapsulation rate,[4]; [9],98.2%
same,mRNA concentration,[4]; [10],0.022 µg/µL
same,mRNA encapsulation rate,[4]; [10],99.3%
same,mRNA concentration,[4]; [11],0.467 µg/µL
same,mRNA encapsulation rate,[4]; [11],96.5%
same,mRNA concentration,[4]; [12],0.037 µg/µL
same,mRNA encapsulation rate,[4]; [12],99.1%
same,mRNA concentration,[4]; [13],0.311 µg/µL
same,mRNA encapsulation rate,[4]; [13],97.1%
same,GFP expression in cell types of the liver,"liver; Example 26, Fig. 5, EGFP mRNA-loaded lipid nanoparticles 50/3/47/1.5 (mol%), 0.2 mg mRNA/kg, 24 hours after administration",GFP expression was observed not only in hepatocytes but also in vascular endothelial cells
same,fluorescence of EGFP in the liver tissues,liver; [14],fluorescence of EGFP was observed
same,gene expression in hepatocytes,liver; [14],notably high levels of gene expression
